Measured values: patent publication US20200316050A1, “A TOPICAL COMPOSITION BASED ON NIACINAMIDE DERIVATIVE” (Conopco, Inc., d/b/a UNILEVER, priority 2017, published 2020)

System: Human neonatal primary skin keratinocyte (NHEK) cells
Assay: psoriasin (AMP marker) secretion by human keratinocytes, ELISA of culture supernatant
Assay type: cell-based
Details: 72 hours incubation, KGM with 2 mM calcium chloride
Protocol: Step 1: Human neonatal primary skin keratinocyte (NHEK) cells was obtained from Lonza ®. The experiment was done with the above-mentioned cells with passage between 3 and 4. Then, the cells were seeded (35,000 cells/well) in 24 well plate with keratinocyte growth media (KGM) obtained from Invitrogen®. The plate was then incubated at 37±2° C. in a CO2 incubator for 48 hours.
Step 2: After 48 hours of incubation, cell differentiation was induced by replacing media with fresh KGM supplemented with 2 mM calcium chloride solution. This was then followed by incubation at 37±2° C. in a CO2 incubator for 48 hours.
Step 3: After that, the cells were treated with different concentration (as outlined table 1 below) of N-cyclopentyl nicotinamide, with keratinocyte growth media supplemented with 2mM calcium chloride solution:
Step 4: After the above treatment, cells were again incubated at 37±2° C. in a CO2 incubator for 72 hours.
Step 5: After 72 hours of incubation, cell culture supernatant from each well was collected in a sterile tube. The samples were then stored at -80° C. until used for testing psoriasin secretion by standard ELISA technique using psoriasin ELISA kit obtained from Circulx® (No: CY-8073). In the current experiment, psoriasin was used as a marker for AMP.
Step 6: The ELISA method was performed by using 100 μL of cell culture supernatant from each sample.
The data is expressed in terms of fold change over control (no treatment:
Example A). The fold change in psoriasin levels in case of control (example A) is taken to be equal to 1 fold. Any fold change in psoriasin obtained due to treatments outlined in all the other examples was over and above the 1 fold change obtained from the control.

Row | SMILES | Fold Change in psoriasin levels over control (no treatment, Example A = 1) (200 μg/mL) | Fold Change in psoriasin levels over control (no treatment, Example A = 1) (500 μg/mL) | Fold Change in psoriasin levels over control (no treatment, Example A = 1) (400 μg/mL)
1 | NC(=O)c1cccnc1 [B, Niacinamide] | 0.9 fold | 1.4 fold | –
2 | O=C(NC1CCCC1)c1cccnc1 [Example 1, N-cyclopentyl nicotinamide] | 2.06 fold | – | 2.84 fold
